Results from ChEMBL document CHEMBL5291721, “A preclinical secondary pharmacology resource illuminates target-adverse drug reaction associations of marketed drugs” (Nat Commun, 2023).

Key:
Estrogen receptor = molecular target: T1, Estrogen receptor (Homo sapiens, UniProt P03372); format: functional
T1 sequence (P03372 whole entry): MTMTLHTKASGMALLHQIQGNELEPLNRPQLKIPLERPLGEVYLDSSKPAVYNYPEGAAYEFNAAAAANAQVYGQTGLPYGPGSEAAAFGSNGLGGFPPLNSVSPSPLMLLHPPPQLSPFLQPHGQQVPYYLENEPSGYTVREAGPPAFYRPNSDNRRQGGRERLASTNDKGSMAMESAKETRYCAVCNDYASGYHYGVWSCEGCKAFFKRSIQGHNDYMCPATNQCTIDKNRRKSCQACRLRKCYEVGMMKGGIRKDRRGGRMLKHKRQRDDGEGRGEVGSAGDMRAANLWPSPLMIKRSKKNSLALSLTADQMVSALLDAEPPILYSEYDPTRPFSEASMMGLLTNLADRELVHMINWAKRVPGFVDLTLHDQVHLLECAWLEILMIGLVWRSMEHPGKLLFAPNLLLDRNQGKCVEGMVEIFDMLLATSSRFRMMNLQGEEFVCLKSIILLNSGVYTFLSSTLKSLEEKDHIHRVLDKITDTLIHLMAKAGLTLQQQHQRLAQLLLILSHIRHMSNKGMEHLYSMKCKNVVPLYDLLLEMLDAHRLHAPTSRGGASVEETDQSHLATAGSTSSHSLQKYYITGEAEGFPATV

[1] = molecular target: T2, Peroxisome proliferator-activated receptor gamma (Homo sapiens, UniProt P37231); format: functional
T2 sequence (P37231 whole entry): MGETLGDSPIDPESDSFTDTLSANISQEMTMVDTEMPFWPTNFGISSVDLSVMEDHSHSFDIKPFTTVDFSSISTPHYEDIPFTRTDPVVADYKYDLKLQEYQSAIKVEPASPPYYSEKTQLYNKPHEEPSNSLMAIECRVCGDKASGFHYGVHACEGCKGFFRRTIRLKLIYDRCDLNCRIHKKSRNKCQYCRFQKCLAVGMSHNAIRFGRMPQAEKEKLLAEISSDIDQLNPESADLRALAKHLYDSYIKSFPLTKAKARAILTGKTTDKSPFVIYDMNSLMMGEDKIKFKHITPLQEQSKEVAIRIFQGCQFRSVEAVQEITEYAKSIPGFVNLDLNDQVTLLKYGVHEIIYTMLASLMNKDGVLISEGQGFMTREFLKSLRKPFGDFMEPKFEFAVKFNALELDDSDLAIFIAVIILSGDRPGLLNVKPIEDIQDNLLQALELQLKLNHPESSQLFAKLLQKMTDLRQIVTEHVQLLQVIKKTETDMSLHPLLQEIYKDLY

Thromboxane A2 receptor [2] = molecular target: T3, Thromboxane A2 receptor (Homo sapiens, UniProt P21731); format: functional
T3 sequence (P21731 whole entry): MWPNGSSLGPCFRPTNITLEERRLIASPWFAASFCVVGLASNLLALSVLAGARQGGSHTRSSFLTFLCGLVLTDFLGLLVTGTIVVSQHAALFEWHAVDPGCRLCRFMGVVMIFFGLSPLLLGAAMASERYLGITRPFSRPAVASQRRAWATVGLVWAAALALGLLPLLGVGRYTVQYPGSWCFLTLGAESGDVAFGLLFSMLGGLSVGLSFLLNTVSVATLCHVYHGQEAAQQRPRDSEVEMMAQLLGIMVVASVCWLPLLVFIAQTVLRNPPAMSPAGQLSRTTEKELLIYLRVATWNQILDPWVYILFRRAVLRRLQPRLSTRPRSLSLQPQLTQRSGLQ

Thromboxane A2 receptor [3] = molecular target: T3, Thromboxane A2 receptor; format: functional, cell-based
[4] = molecular target: Voltage-dependent L-type calcium channel subunit alpha-1C (Homo sapiens, UniProt Q13936); format: functional, cell-based
[5] = molecular target: Sodium channel protein type 5 subunit alpha (Homo sapiens, UniProt Q14524); format: functional, cell-based
[6] = molecular target: Voltage-dependent N-type calcium channel subunit alpha-1B (Rattus norvegicus, UniProt Q02294); format: functional
[7] = molecular target: T4, Muscarinic acetylcholine receptor M5 (Homo sapiens, UniProt P08912)
T4 sequence (P08912 whole entry): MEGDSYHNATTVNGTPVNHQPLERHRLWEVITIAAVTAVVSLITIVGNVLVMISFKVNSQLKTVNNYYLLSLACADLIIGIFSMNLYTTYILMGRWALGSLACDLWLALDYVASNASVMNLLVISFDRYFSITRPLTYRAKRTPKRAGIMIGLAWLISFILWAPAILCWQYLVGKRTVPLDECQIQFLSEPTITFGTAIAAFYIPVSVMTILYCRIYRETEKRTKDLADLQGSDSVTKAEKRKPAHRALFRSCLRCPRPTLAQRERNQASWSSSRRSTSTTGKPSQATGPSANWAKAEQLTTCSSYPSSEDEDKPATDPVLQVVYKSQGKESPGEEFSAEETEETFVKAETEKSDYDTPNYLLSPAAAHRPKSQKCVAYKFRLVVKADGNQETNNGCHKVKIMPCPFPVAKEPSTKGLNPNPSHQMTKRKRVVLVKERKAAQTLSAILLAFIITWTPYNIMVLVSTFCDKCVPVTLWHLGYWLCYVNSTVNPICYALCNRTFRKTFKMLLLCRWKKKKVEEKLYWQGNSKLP

Cannabinoid receptor 1 = Cannabinoid receptor 1 (Homo sapiens, UniProt P21554); format: functional
[8] = molecular target: Gamma-aminobutyric acid type B receptor subunit 1 (Homo sapiens, UniProt Q9UBS5)
Also: assay procedure not described here.

Chain of Voltage-dependent N-type calcium channel subunit alpha-1B (Q02294 whole entry): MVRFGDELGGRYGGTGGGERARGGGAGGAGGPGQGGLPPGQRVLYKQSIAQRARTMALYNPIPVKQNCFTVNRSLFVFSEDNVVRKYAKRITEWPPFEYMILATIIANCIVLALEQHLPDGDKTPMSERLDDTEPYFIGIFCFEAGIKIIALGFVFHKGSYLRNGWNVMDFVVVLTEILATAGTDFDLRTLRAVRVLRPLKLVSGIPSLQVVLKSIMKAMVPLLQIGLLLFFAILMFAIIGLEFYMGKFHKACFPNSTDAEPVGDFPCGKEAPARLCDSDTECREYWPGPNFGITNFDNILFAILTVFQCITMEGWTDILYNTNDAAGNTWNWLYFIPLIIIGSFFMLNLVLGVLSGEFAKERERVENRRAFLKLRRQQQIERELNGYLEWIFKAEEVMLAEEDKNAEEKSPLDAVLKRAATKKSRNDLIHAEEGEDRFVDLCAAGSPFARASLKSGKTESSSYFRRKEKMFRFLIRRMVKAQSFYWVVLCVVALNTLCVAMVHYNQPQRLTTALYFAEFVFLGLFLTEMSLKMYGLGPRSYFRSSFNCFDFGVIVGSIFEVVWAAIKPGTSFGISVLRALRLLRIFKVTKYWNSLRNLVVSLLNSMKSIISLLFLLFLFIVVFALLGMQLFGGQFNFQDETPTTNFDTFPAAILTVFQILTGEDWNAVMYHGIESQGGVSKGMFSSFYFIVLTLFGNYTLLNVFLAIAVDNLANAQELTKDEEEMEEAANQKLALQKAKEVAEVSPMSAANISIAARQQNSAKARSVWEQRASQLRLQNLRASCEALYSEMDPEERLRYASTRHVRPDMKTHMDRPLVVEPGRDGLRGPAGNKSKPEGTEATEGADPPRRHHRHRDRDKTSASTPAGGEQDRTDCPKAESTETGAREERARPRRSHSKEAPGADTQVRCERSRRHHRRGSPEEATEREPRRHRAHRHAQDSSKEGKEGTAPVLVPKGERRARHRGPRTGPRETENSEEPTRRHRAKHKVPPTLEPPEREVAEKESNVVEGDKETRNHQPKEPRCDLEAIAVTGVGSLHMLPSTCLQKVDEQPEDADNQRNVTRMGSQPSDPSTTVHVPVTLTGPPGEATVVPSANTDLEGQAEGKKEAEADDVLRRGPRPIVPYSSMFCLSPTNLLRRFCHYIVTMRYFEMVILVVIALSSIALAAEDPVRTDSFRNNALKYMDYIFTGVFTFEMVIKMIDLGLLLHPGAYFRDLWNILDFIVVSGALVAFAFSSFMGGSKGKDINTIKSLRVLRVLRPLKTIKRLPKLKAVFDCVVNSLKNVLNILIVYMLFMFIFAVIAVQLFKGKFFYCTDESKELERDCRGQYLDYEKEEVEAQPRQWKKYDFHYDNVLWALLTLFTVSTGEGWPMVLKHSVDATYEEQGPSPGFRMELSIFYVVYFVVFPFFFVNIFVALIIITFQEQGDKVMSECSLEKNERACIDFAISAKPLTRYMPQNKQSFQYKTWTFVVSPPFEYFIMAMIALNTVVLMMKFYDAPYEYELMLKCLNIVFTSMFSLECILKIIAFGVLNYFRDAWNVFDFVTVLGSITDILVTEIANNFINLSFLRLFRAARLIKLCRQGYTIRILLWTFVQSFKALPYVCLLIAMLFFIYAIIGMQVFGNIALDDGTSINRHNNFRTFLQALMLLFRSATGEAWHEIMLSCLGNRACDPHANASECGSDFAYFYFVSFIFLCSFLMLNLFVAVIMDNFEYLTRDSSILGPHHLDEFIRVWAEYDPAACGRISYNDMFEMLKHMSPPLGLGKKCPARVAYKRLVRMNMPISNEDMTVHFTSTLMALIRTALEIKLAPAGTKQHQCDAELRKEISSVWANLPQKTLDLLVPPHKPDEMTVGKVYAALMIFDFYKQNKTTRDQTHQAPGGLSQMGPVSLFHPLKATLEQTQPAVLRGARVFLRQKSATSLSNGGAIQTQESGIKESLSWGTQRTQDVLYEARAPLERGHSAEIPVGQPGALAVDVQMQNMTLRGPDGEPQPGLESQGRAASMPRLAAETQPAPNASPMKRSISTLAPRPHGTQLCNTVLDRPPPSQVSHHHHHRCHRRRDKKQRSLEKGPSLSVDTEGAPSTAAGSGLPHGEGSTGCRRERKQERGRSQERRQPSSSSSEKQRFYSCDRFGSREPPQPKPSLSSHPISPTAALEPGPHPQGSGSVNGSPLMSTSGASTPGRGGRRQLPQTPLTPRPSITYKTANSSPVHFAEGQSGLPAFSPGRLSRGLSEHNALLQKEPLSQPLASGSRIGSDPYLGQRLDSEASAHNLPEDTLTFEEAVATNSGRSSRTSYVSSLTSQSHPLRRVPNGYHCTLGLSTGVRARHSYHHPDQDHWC
Chain of Gamma-aminobutyric acid type B receptor subunit 1 (Q9UBS5 whole entry): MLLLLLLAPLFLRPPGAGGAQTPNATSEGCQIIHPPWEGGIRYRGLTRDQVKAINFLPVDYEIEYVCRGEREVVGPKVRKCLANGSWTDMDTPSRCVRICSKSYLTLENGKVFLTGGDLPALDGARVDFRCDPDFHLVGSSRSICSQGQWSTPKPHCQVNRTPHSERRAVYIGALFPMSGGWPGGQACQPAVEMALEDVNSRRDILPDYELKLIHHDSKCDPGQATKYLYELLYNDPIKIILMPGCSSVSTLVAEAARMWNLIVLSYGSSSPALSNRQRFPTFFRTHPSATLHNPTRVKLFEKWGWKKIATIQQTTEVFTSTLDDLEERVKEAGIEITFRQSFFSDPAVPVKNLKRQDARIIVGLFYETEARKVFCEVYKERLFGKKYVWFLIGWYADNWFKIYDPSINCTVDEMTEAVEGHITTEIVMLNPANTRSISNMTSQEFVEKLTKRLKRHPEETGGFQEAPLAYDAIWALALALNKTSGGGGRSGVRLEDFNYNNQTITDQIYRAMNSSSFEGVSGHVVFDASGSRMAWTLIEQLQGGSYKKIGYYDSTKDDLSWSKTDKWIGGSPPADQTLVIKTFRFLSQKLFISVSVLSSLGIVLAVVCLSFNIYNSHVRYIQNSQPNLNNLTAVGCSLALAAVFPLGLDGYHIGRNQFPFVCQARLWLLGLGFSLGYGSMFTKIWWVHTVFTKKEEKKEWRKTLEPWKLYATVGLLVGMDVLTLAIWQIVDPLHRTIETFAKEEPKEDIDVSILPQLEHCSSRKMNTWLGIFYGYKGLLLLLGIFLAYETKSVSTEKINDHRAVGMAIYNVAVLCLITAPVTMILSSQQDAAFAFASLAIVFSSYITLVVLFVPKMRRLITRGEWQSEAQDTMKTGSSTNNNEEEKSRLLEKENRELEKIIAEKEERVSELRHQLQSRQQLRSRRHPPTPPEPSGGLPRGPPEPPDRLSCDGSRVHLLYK
Chain of Cannabinoid receptor 1 (P21554 whole entry): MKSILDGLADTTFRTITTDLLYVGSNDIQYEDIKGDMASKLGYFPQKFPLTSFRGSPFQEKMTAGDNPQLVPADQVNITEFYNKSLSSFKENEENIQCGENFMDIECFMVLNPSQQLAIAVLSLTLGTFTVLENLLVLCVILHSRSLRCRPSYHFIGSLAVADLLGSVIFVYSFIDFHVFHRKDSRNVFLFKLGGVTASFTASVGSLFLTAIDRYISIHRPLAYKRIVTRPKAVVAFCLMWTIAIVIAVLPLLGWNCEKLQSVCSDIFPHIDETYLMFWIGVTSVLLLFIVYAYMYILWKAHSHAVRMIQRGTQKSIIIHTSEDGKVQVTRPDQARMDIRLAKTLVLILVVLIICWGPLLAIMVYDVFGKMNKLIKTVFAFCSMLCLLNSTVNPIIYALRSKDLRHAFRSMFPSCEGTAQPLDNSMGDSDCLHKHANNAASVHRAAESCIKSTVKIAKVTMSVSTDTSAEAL

Compound `CO/N=C(\C(=O)N[C@@H]1C(=O)N2C(C(=O)[O-])=C(C[N+]3(C)CCCC3)CS[C@H]12)c1csc(N)n1` has an AC50 (Estrogen receptor) of 54 µM, an AC50 [1] greater than 300 µM and an AC50 (Thromboxane A2 receptor [2]) greater than 300 µM. The AC50 (Thromboxane A2 receptor [3]) was greater than 300 µM.
Compound `COC(=O)N[C@H](C(=O)N1CCC[C@H]1c1nc(-c2ccc(-c3ccc(-c4c[nH]c([C@@H]5CCCN5C(=O)[C@@H](NC(=O)OC)C(C)C)n4)cc3)cc2)c[nH]1)C(C)C` has an AC50 [4] greater than 30 µM and an AC50 [5] greater than 30 µM.
`CCOC(=O)[C@H](CCc1ccccc1)N[C@@H](C)C(=O)N1CCC[C@H]1C(=O)O` showed an AC50 [6] greater than 10 µM, an AC50 [7] greater than 10 µM and an AC50 (Cannabinoid receptor 1) greater than 10 µM. The AC50 [8] was greater than 10 µM and the AC50 [5] was greater than 30 µM.
With `Nc1nc(N)c2nc(-c3ccccc3)c(N)nc2n1` the AC50 [6] was greater than 10 µM, the AC50 [7] was greater than 10 µM and the AC50 (Cannabinoid receptor 1) was greater than 10 µM. The AC50 [8] was greater than 10 µM, the AC50 (Thromboxane A2 receptor [2]) was greater than 30 µM and the AC50 (Thromboxane A2 receptor [3]) was greater than 30 µM.
Compound `C[C@H]1O[C@H](O[C@H]2[C@H](O)[C@@H](O)[C@@H](O[C@H]3[C@H](O)[C@@H](O)C(O)O[C@@H]3CO)O[C@@H]2CO)[C@H](O)[C@@H](O)[C@@H]1N[C@H]1C=C(CO)[C@@H](O)[C@H](O)[C@H]1O` (stereo not given in full) [ACARBOSE] has an AC50 [6] greater than 10 µM, an AC50 [7] greater than 10 µM and an AC50 (Cannabinoid receptor 1) greater than 10 µM. It also gave an AC50 [8] greater than 10 µM.
Work on `CC(=O)c1ccc2c(c1)N(CCCN1CCN(CCO)CC1)c1ccccc1S2` [ACETOPHENAZINE] yielded an AC50 (Estrogen receptor) greater than 30 µM and an AC50 [1] greater than 30 µM.
With `Oc1ncnc2[nH]ncc12` [ALLOPURINOL] the AC50 [6] was greater than 10 µM, the AC50 (Thromboxane A2 receptor [2]) was greater than 30 µM and the AC50 (Thromboxane A2 receptor [3]) was greater than 30 µM.
Compound `CC(N)Cc1ccccc1` (stereo not given) [AMPHETAMINE] has an AC50 [6] greater than 10 µM, an AC50 (Estrogen receptor) greater than 30 µM and an AC50 [1] greater than 30 µM.
Compound `CN1CCCC(n2nc(Cc3ccc(Cl)cc3)c3ccccc3c2=O)CC1` (stereo not given) [AZELASTINE] has an AC50 (Estrogen receptor) greater than 30 µM and an AC50 [1] greater than 30 µM.
For `O=C1c2c(O)c(=O)ccn2N([C@@H]2c3ccccc3SCc3c2ccc(F)c3F)[C@@H]2COCCN12` [BALOXAVIR], the AC50 [4] was greater than 50 µM and the AC50 [5] was greater than 50 µM.
Compound `CC(C)NCC(O)COc1ccc(COCCOC(C)C)cc1` (stereo not given) [BISOPROLOL] has an AC50 [6] greater than 10 µM and an AC50 [5] greater than 30 µM.
In the case of `COc1cc(Nc2c(C#N)cnc3cc(OCCCN4CCN(C)CC4)c(OC)cc23)c(Cl)cc1Cl` [BOSUTINIB], the AC50 [6] is reported as greater than 10 µM, the AC50 [7] is reported as 12.1 µM and the AC50 (Cannabinoid receptor 1) is reported as greater than 10 µM. It also gave an AC50 [8] greater than 10 µM.
For `N[C@@H](C(=O)N[C@@H]1C(=O)N2C(C(=O)O)=C(Cl)CS[C@H]12)c1ccccc1` [CEFACLOR ANHYDROUS], the AC50 [1] was greater than 30 µM.
For `CCC[C@@H]1C[C@@H](C(=O)N[C@@H]([C@H]2O[C@H](SC)[C@H](O)[C@@H](O)[C@H]2O)[C@H](C)Cl)N(C)C1` [CLINDAMYCIN], the AC50 [6] was greater than 10 µM.
For `CN(C)CCCN1c2ccccc2CCc2ccc(Cl)cc21` [CLOMIPRAMINE], the AC50 [6] was greater than 10 µM.
With `CN(CCOc1ccc(NS(C)(=O)=O)cc1)CCc1ccc(NS(C)(=O)=O)cc1` [DOFETILIDE] the AC50 [6] was greater than 10 µM.
Work on `COc1cc2c(cc1OC)C(=O)C(CC1CCN(Cc3ccccc3)CC1)C2` (stereo not given) [DONEPEZIL] yielded an AC50 [7] of 15.4 µM, an AC50 (Cannabinoid receptor 1) greater than 10 µM and an AC50 [8] greater than 10 µM.
`COC(=O)[C@@H]1CC2=CC(=O)CC[C@]2(C)[C@@]23O[C@@H]2C[C@@]2(C)[C@@H](CC[C@@]24CCC(=O)O4)[C@H]13` [EPLERENONE] showed an AC50 [6] greater than 10 µM, an AC50 (Estrogen receptor) greater than 30 µM and an AC50 [1] greater than 30 µM.
`C#C[C@]1(O)CC[C@H]2[C@@H]3CCc4cc(O)ccc4[C@H]3CC[C@@]21C` [ETHINYL ESTRADIOL] was tested, and the AC50 [6] was greater than 10 µM, the AC50 [8] was greater than 10 µM and the AC50 [5] was greater than 30 µM.
For `NC(N)=Nc1nc(CSCCC(N)=NS(N)(=O)=O)cs1` [FAMOTIDINE], the AC50 [6] was greater than 10 µM, the AC50 [7] was greater than 10 µM and the AC50 (Cannabinoid receptor 1) was greater than 10 µM.
